Legend:
[1] = target: cGMP-specific 3',5'-cyclic phosphodiesterase (Homo sapiens, UniProt O76074); experiment: Inhibition of PDE5 from human platelets
[2] = Relative inhibition of PDE4 from rat kidney and PDE5 from human platelets
[3] = Relative inhibition of PDE6 from bovine retina and PDE5 from human platelets
[4] = Relative inhibition of PDE2 from rat kidney and PDE5 from human platelets
[5] = Relative inhibition of PDE1 from bovine heart and PDE5 from human platelets

SMILES | IC50 [1] [nM] | Ratio [2] | Ratio [3] | Ratio [4] | Ratio [5]
CCCOc1ccc(S(=O)(=O)N2CC[C@@H](N(C)C)C2)cc1-c1nc(O)c2c[nH]c3nncc-3c2n1 | – | 3200 | 22 | 2000 | 400
CCCOc1ccc(S(=O)(=O)N2CC[C@@H](N(C)C)C2)cc1-c1nc(O)c2c(Cl)nc3nn(Cc4ccc(OC)cc4)cc3c2n1 | – | 310 | 17 | 1200 | 130
CCCOc1ccc(S(=O)(=O)N2CC[C@@H](N(C)C)C2)cc1-c1nc(O)c2c(NCc3ccc(F)cc3)nc3nn(Cc4ccc(OC)cc4)cc3c2n1 | – | 2500 | 15 | > 10000 | –
CCCOc1ccc(S(=O)(=O)N2CC[C@@H](N(C)C)C2)cc1-c1nc(O)c2c(NCc3ccc(OC)c(Cl)c3)[nH]c3nncc-3c2n1 | – | – | 180 | > 10000 | –

Other lines, results leading:

IC50 [1] [nM] | Ratio [2] | Ratio [3] | Ratio [4] | Ratio [5] | SMILES
2.1 | – | – | – | – | CCCOc1ccc(S(=O)(=O)N2CC[C@@H](N(C)C)C2)cc1-c1nc2c(cnc3n[nH]cc32)c(=O)[nH]1
1.7 | – | – | – | – | CCCOc1ccc(S(=O)(=O)N2CC[C@@H](N(C)C)C2)cc1-c1nc2c(c(NCc3ccc(F)cc3)nc3nn(Cc4ccc(OC)cc4)cc32)c(=O)[nH]1
13 | – | – | – | – | CCCOc1ccc(S(=O)(=O)N2CC[C@@H](N(C)C)C2)cc1-c1nc2c(c(Cl)nc3nn(Cc4ccc(OC)cc4)cc32)c(=O)[nH]1
– | > 100000 | 160 | – | – | CCCOc1ccc(S(=O)(=O)N2CC[C@@H](N(C)C)C2)cc1-c1nc(O)c2c(NCc3ccc(F)cc3)[nH]c3nncc-3c2n1
0.31 | – | – | – | – | CCCOc1ccc(S(=O)(=O)N2CC[C@@H](N(C)C)C2)cc1-c1nc2c(c(NCc3ccc(F)cc3)nc3n[nH]cc32)c(=O)[nH]1

Reference: ChEMBL document CHEMBL1133954, “The discovery of novel, potent and selective PDE5 inhibitors” (Bioorg Med Chem Lett, 2001)
